pIC50: −log10 of the molar value. The source made the active and inactive calls. How the calls were made is not given here.
Experiments:
Assay in all cases: CXCR6 receptor antagonists, dose response, cell-based, beta-arrestin, DiscoveRx, APJ panel, uHTS hits (AID 624129)
[1] = target: Apelin receptor (Homo sapiens) (UniProt P35414); conditions: CXCR6 beta-arrestin (DiscoveRx) antagonist cell assay, APJ
[2] = target: Beta-galactosidase (Escherichia coli) (UniProt Q8VNN2); conditions: CXCR6 beta-arrestin (DiscoveRx) antagonist cell assay, b-galactosidase; for IC50: dose range 1; for pIC50: dose range 1, mean IC50 across replicates
[3] = target: C-C chemokine receptor type 6 (Homo sapiens) (UniProt P51684); conditions: CXCR6 beta-arrestin (DiscoveRx) antagonist cell assay
[4] = target: C-X-C chemokine receptor type 6 (Homo sapiens) (UniProt O00574); conditions: CXCR6 beta-arrestin (DiscoveRx) antagonist cell assay; for inhibition: CXCR6, run 1, dose range 2, at 80 µM (top of the series)
[5] = dose range 1, mean IC50 across replicates
[6] = CCR6, dose range 1, mean IC50 across replicates
[7] = CXCR6, dose range 1, mean IC50 across replicates

Beta-galactosidase (Escherichia coli), sequence (Q8VNN2 whole entry, looked up): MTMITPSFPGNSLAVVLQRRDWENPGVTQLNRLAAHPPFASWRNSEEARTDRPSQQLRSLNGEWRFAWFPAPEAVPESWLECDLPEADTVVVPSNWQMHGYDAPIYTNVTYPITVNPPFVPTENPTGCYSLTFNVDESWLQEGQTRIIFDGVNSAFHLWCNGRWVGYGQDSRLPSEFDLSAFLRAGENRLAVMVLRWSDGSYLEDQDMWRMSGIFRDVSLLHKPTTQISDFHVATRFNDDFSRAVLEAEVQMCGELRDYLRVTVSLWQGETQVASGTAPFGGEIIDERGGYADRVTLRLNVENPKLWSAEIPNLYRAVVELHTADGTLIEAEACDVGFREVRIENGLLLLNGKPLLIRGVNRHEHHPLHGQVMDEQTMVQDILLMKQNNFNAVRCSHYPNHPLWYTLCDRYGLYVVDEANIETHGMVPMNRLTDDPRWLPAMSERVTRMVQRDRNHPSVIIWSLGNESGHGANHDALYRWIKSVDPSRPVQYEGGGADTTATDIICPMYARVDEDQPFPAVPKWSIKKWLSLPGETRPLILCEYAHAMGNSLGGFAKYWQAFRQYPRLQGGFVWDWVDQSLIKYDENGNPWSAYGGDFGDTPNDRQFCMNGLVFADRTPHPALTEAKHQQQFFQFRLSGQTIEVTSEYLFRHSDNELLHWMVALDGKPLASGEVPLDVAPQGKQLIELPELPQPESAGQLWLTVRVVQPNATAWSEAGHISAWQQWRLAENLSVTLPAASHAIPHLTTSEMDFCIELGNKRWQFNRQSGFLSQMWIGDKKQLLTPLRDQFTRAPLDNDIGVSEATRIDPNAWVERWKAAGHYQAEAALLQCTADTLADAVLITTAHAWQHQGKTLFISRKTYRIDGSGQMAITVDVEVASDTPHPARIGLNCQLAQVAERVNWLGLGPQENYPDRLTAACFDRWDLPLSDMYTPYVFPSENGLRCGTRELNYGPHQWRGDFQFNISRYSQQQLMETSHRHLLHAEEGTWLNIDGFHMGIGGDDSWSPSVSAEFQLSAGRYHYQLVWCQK
C-X-C chemokine receptor type 6 (Homo sapiens), sequence (O00574 whole entry, looked up): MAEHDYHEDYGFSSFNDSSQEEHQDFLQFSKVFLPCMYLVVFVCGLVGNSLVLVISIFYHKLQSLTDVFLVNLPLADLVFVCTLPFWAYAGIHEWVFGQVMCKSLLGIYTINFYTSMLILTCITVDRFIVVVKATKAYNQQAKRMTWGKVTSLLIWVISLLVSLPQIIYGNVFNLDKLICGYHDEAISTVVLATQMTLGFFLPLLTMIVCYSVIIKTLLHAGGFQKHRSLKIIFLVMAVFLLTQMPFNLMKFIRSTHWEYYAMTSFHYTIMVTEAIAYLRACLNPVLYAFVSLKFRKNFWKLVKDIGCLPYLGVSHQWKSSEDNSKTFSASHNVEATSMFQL

Row | Structure (SMILES) | pIC50 ([1]; dose range 1) | pIC50 [1, 5] | pIC50 ([1]; run 2, dose range 1) | pIC50 ([1]; run 3, dose range 1) | IC50 [2] | pIC50 [2] | pIC50 ([3]; CCR6, dose range 1) | pIC50 [3, 6] | pIC50 ([3]; CCR6, run 2, dose range 1) | pIC50 ([4]; CXCR6, dose range 1) | pIC50 [4, 7] | pIC50 ([4]; CXCR6, run 1, dose range 2) | pIC50 ([4]; CXCR6, run 2, dose range 1) | pIC50 ([4]; CXCR6, run 2, dose range 2) | IC50 ([4]; CXCR6, dose range 1) | inhibition [4]
1 | Cc1cccc(C(=O)Nc2ccc(C(=O)/C=C/c3cccnc3)cc2)c1 | 5.06 | 5.02 | 5.01 | 4.98 | > 80 µM (inactive) | < 4.10 | 5.27 | 5.24 | 5.21 | 4.86 | 5.06 | 5.16 | 5.15 | 5.13 | – | –
2 | O=C(OCn1ncc(Cl)c(Cl)c1=O)c1cccc(C(F)(F)F)c1 | 4.67 | 4.50 | 4.49 | 4.39 | > 80 µM (inactive) | < 4.10 | 4.85 | 4.79 | 4.74 | – | 4.63 | – | 4.72 | – | inactive | 128%
3 | O=C1C=CC2(O[C@H](c3ccccc3)[C@@H](c3ccccc3)O2)[C@H](Sc2ccccc2O)C1 | 5.78 | 5.52 | 5.30 | 5.61 | > 80 µM (inactive) | < 4.10 | 5.65 | 5.51 | 5.41 | 5.06 | 5.20 | – | 5.40 | – | – | 121%
4 | COc1cc(/C=C/c2ccc3c(Br)cc(Br)c(O)c3n2)ccc1O | 4.69 | 4.63 | 4.73 | 4.49 | > 80 µM (inactive) | < 4.10 | 4.90 | 4.92 | 4.94 | – | 4.90 | 5.06 | 4.93 | 4.90 | inactive | –
5 | CC(C)(C)c1ccc(-n2nc(C#N)c(Cl)cc2=O)cc1 | 5.15 | 5.10 | 5.26 | 4.96 | > 80 µM (inactive) | < 4.10 | 5.42 | 5.26 | 5.15 | 4.94 | 5.08 | 5.29 | 5.07 | 5.10 | – | –

Source: PubChem BioAssay AID624129 (Sanford-Burnham Center for Chemical Genomics, 2012)
